{
  "source": "paper PMC7558535",
  "about": "“In Vitro Metabolism of DWP16001, a Novel Sodium-Glucose Cotransporter 2 Inhibitor, in Human and Animal Hepatocytes” (Pharmaceutics, 2020)",
  "key": {"11 human CYP enzymes": {"tested_on": "11 human CYP enzymes", "experiment": "CYP screening, whole panel", "assay_type": "in vitro ADME", "experimental": "DWP16001, M1, or M2 was incubated with 11 human cDNA-expressed CYP enzymes (1A1, 1A2, 2A6, 2B6, 2C8, 2C9, 2C19, 2D6, 2E1, 3A4, and 3A5) to identify the CYP enzymes involved in the metabolism of DWP16001. Reaction mixtures of 95 µL containing DWP16001 (final concentration: 5 µM), M1 or M2 (final concentration: 10 µM), and CYPs (final amount: 10 pmol) were prepared in 0.1 M potassium phosphate buffer (pH 7.4). The reaction was started by adding 5 µL of NADPH-generating system; the mixtures were incubated for 30 min at 37 °C in triplicate. Reactions were stopped by the addition of 400 µL of ice-cold ketoconazole (internal standard, 200 ng/mL) in ice-cold acetonitrile. Samples were centrifuged at 15,000× g for 8 min at 4 °C. Seventy-five microliter aliquots of the supernatants were diluted with 75 µL of deionized water and analyzed using an LC–MS/MS system."}, "13 human UGT enzymes": {"tested_on": "13 human UGT enzymes", "experiment": "UGT screening, whole panel", "assay_type": "in vitro ADME", "details": "incubation of M1 with 13 human UGT enzymes and UDPGA", "experimental": "To screen for UGT enzymes responsible for glucuronidation of DWP16001, 100 μL of reaction mixtures containing 13 human cDNA-expressed UGT enzymes (1A1, 1A3, 1A4, 1A6, 1A7, 1A8, 1A9, 1A10, 2B4, 2B7, 2B10, 2B15, and 2B17) at 0.1 mg protein/mL, 5 mM UDPGA, 0.025 mg/mL alamethicin, and 25 μM DWP16001 or M1 in 50 mM Tris buffer (pH 7.4) were incubated at 37 °C for 30 min in triplicate. Reactions were stopped by adding 100 μL of ketoconazole (internal standard, 200 ng/mL) in acetonitrile, followed by vortex-mixing and centrifugation (15,000× g, 8 min, 4 °C). The supernatant (75 μL) was diluted with equal volume of 30% acetonitrile and aliquots (5 μL) were injected into an LC-MS/MS system."}, "[1]": {"details": "cited from earlier work"}, "[2]": {"details": "human, cited from earlier work"}, "[3]": {"details": "human; cited from earlier work"}, "human hepatocytes": {"tested_on": "human hepatocytes", "details": "cited from earlier work"}, "SGLT2": {"tested_on": "SGLT2", "parameters": "method as in PMID 32183468", "details": "read-out: IC50 (SGLT2 inhibition); cited from earlier work"}},
  "note": "Read-outs that look alike come from different tables or passages of the source.",
  "data": [
    {"smiles": "OC[C@H]1O[C@@H](c2cc(Cc3ccc(C4CC4)cc3)c(Cl)c3c2CC(O)O3)[C@H](O)[C@@H](O)[C@@H]1O", "note": "(stereo partly drawn) [M1, (2S,3R,4R,5S,6R)-2-(7-chloro-6-(4-cyclopropylbenzyl)-2-hydroxy-2,3-dihydrobenzofuran-4-yl)-6-(hydroxymethyl)tetrahydro-2H-pyran-3,4,5-triol]", "values": [
      {"measurement": "Formation of M4 from M1", "setting": "11 human CYP enzymes; incubation of M1 with 11 human CYP enzymes and NADPH", "value": "not detected"},
      {"measurement": "Formation of M1 glucuronides U4 and U5 from M1", "setting": "13 human UGT enzymes", "value": "not formed"}
    ]},
    {"smiles": "OC[C@H]1O[C@@H](c2cc(Cc3ccc(C4(O)CC4)cc3)c(Cl)c3c2CCO3)[C@H](O)[C@@H](O)[C@@H]1O", "note": "[M2, (2S,3R,4R,5S,6R)-2-(7-chloro-6-(4-(1-hydroxycyclopropyl)benzyl)-2,3-dihydrobenzofuran-4-yl)-6-(hydroxymethyl)tetrahydro-2H-pyran-3,4,5-triol]", "values": [
      {"measurement": "Formation of M5 from M2", "setting": "11 human CYP enzymes; incubation of M2 with 11 human CYP enzymes and NADPH", "value": "not detected"}
    ]},
    {"smiles": "Cc1ccc([C@@H]2O[C@H](CO)[C@@H](O)[C@H](O)[C@H]2O)cc1Cc1ccc(-c2ccc(F)cc2)s1", "note": "[canagliflozin]", "values": [
      {"measurement": "Drug interaction on co-administration", "setting": "[1]; glyburide, metformin, and simvastatin", "value": "did not cause significant drug interactions"},
      {"measurement": "Increase of AUC", "setting": "[1]; human, cyclosporine A 400 mg", "value": 23, "unit": "%"},
      {"measurement": "Increase of AUC", "setting": "[1]; human, probenecid 500 mg twice per day for 3 days", "value": 20.7, "unit": "%"},
      {"measurement": "Decrease of AUC", "setting": "[1]; human, repeated rifampin 600 mg/day for 8 days", "value": 48.7, "unit": "%"}
    ]},
    {"smiles": "CCOc1ccc(Cc2cc([C@@H]3O[C@H](CO)[C@@H](O)[C@H](O)[C@H]3O)ccc2Cl)cc1", "note": "[dapagliflozin]", "values": [
      {"measurement": "Increase of AUC", "setting": "[2]; pretreatment with mefenamic acid 250 mg every 6 h for 5 days", "value": 50, "unit": "%"},
      {"measurement": "Decrease of AUC", "setting": "[2]; repeated rifampin 600 mg/day for 6 days", "value": 22, "unit": "%"},
      {"measurement": "Share of oxidative metabolism (CYP2D6, CYP3A4, CYP2C9 etc.) in metabolism", "setting": "[3]", "value": "less than 10%"},
      {"measurement": "Hepatic extraction", "setting": "human hepatocytes", "value": "low"}
    ]},
    {"smiles": "OC[C@H]1O[C@@H](c2ccc(F)c(Cc3cc4ccccc4s3)c2)[C@H](O)[C@@H](O)[C@@H]1O", "note": "[ipragliflozin]", "values": [
      {"measurement": "IC50", "setting": "SGLT2", "value": "8.9 ± 1.7", "unit": "nM"}
    ]}
  ]
}
